According to ChEMBL document CHEMBL5465560, “Selectivity Literature for EUbOPEN Chemogenomic Library” (2024):
Values belong to the molecule of their own block, whether it stands above or below them.

What was measured:
[1] = tested on: Leucine-rich repeat serine/threonine-protein kinase 2 (Homo sapiens), Q5S007 [G2019S]; experiment: (§1) Selectivity interaction (KinomeScan (DiscoverX)) EUB0000655a LRRK2; conditions: at 10 µM
[2] = molecular target: Leucine-rich repeat serine/threonine-protein kinase 2 (Homo sapiens, UniProt Q5S007); experiment: as §1; conditions: at 10 µM
[3] = molecular target: T1, Mitogen-activated protein kinase kinase kinase 6 (Homo sapiens) (UniProt O95382); experiment: Selectivity interaction (KinomeScan (DiscoverX)) EUB0000618a MAP3K6; conditions: at 10 µM
T1 sequence (whole entry): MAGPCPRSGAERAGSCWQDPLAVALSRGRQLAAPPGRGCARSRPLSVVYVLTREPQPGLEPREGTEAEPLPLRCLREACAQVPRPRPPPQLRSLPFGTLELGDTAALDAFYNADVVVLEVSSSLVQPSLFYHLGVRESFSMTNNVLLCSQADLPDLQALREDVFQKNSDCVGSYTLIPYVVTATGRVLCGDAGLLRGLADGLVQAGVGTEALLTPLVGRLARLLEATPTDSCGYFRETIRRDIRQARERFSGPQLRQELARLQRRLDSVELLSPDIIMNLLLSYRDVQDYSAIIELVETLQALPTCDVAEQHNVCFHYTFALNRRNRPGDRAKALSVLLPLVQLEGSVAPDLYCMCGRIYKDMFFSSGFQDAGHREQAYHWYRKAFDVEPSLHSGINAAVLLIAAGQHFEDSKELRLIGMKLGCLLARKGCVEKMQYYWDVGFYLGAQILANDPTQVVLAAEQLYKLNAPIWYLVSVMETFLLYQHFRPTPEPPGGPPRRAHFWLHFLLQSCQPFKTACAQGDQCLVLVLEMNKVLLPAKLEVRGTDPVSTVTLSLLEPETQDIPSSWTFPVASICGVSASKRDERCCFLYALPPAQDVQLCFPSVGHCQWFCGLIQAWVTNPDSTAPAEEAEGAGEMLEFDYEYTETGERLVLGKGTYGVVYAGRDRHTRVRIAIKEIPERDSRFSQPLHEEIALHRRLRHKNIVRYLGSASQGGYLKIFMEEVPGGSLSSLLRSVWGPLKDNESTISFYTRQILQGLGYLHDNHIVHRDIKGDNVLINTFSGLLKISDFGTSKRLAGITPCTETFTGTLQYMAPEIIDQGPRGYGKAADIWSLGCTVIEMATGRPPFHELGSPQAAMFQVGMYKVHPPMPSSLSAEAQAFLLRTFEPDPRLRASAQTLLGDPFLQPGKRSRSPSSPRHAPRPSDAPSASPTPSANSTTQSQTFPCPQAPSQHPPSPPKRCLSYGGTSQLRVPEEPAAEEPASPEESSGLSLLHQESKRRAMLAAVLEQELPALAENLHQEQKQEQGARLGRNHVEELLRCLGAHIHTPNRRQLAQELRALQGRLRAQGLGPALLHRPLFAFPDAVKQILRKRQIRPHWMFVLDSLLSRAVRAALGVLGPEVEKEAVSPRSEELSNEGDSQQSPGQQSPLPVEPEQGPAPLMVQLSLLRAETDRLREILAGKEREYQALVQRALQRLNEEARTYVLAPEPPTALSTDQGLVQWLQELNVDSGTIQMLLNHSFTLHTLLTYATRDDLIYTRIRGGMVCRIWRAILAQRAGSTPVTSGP

[4] = molecular target: Mitogen-activated protein kinase 9 (Homo sapiens, UniProt P45984); experiment: Selectivity interaction (KinomeScan (DiscoverX)) EUB0000618a MAPK9; conditions: at 10 µM
[5] = molecular target: Receptor tyrosine-protein kinase erbB-3 (Homo sapiens) (UniProt P21860); experiment: Selectivity interaction (KinomeScan (DiscoverX)) EUB0000045b ERBB3
[6] = molecular target: Hepatocyte growth factor receptor (Homo sapiens, UniProt P08581); conditions: at 10 µM
[7] = molecular target: Mitogen-activated protein kinase kinase kinase kinase 5 (Homo sapiens) (UniProt Q9Y4K4); experiment: Selectivity interaction (Kinase panel (Invitrogen)) EUB0000639a MAP4K5; conditions: at 200 nM
[8] = molecular target: T2, Phosphatidylinositol 4,5-bisphosphate 3-kinase catalytic subunit delta isoform (Homo sapiens) (UniProt O00329); experiment: Selectivity interaction (KinomeScan (DiscoverX)) EUB0000877a PIK3CD; conditions: at 10 µM
T2 sequence (whole entry): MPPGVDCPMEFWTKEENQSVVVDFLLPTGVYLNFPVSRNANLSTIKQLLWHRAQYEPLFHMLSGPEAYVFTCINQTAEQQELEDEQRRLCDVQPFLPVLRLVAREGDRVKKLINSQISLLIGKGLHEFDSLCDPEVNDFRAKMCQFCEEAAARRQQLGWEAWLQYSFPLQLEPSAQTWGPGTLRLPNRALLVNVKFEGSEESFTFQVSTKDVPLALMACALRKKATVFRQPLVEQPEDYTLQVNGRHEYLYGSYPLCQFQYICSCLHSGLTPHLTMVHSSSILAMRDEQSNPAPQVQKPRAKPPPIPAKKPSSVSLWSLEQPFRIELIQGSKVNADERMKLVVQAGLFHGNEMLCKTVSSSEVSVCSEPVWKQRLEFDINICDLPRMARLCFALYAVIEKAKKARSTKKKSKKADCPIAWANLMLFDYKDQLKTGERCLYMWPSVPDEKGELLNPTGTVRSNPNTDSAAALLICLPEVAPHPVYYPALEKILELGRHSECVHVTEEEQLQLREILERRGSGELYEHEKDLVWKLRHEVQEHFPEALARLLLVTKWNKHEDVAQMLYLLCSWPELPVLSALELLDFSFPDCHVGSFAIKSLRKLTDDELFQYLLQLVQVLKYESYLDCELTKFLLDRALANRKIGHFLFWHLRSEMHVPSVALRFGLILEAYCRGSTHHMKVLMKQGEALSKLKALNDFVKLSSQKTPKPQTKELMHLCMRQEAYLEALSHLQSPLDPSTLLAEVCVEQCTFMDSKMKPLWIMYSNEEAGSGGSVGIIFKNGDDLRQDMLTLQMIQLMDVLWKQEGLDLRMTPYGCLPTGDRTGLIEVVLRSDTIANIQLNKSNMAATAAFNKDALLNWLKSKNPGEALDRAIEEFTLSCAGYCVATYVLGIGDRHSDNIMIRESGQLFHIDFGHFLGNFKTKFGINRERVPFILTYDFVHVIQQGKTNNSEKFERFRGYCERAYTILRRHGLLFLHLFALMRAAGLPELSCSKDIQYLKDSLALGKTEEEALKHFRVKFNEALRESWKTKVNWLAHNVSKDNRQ

[9] = molecular target: Casein kinase I isoform gamma-1 (Homo sapiens) (UniProt Q9HCP0); experiment: Selectivity interaction (KinomeScan (DiscoverX)) EUB0000666a CSNK1G1; conditions: at 10 µM
Chain of Casein kinase I isoform gamma-1 (Homo sapiens) (Q9HCP0 whole entry, looked up, canonical isoform): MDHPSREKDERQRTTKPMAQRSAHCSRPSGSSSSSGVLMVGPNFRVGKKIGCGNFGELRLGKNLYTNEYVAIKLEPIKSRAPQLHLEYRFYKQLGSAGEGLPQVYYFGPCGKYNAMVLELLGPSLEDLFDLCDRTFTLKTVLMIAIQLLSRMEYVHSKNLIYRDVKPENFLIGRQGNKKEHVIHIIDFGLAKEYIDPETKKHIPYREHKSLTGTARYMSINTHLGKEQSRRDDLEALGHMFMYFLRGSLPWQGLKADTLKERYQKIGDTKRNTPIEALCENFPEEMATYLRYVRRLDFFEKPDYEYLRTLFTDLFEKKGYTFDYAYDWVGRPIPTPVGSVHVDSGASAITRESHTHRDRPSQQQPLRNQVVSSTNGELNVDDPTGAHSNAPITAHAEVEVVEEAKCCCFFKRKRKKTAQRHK

Chain of Receptor tyrosine-protein kinase erbB-3 (Homo sapiens) (P21860 whole entry): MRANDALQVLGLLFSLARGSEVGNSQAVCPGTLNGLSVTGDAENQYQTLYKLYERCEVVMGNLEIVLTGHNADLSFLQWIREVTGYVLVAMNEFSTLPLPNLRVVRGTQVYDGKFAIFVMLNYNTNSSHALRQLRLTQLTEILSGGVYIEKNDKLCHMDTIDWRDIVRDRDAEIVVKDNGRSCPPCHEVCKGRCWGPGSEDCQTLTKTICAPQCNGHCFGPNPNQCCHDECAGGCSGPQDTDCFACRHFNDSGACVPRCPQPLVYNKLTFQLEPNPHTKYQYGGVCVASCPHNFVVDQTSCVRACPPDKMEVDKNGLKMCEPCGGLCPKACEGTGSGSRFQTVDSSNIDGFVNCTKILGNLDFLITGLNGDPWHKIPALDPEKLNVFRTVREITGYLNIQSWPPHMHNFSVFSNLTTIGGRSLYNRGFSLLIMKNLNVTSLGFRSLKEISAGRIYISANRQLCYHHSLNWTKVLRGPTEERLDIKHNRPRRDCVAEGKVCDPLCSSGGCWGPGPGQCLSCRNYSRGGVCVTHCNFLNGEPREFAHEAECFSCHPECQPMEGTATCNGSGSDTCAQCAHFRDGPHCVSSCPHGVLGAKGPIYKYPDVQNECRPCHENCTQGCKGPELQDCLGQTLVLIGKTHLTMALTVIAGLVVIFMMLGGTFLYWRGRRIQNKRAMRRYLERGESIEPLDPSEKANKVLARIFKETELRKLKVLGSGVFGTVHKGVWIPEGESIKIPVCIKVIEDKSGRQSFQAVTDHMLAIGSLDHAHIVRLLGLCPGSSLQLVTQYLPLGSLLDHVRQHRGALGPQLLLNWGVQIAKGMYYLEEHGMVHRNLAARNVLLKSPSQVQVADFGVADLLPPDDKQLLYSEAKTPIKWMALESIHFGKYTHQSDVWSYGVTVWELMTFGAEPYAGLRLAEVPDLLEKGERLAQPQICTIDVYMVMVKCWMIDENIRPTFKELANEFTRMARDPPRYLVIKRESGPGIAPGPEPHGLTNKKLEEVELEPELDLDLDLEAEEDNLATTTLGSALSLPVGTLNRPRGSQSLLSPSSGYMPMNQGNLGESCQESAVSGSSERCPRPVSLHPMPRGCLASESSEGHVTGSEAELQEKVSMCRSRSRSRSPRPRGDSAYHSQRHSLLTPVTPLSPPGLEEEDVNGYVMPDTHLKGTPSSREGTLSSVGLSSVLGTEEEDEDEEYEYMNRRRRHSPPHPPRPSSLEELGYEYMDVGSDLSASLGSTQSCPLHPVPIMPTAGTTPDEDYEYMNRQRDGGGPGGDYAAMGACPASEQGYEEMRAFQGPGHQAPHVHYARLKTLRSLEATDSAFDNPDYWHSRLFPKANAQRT
Chain of Mitogen-activated protein kinase 9 (P45984 whole entry, looked up): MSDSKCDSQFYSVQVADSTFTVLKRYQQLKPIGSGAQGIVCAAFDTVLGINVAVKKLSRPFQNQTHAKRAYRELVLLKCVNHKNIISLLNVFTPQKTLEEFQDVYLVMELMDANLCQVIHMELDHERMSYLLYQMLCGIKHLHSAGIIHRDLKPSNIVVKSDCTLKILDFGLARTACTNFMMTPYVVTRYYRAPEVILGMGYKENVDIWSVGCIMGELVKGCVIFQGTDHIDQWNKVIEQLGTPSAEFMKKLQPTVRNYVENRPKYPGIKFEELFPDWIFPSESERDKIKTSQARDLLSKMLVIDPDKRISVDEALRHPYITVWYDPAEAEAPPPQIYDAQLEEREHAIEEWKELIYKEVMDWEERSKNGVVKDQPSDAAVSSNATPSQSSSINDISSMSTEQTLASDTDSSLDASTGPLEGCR
Chain of Leucine-rich repeat serine/threonine-protein kinase 2 (Q5S007 whole entry): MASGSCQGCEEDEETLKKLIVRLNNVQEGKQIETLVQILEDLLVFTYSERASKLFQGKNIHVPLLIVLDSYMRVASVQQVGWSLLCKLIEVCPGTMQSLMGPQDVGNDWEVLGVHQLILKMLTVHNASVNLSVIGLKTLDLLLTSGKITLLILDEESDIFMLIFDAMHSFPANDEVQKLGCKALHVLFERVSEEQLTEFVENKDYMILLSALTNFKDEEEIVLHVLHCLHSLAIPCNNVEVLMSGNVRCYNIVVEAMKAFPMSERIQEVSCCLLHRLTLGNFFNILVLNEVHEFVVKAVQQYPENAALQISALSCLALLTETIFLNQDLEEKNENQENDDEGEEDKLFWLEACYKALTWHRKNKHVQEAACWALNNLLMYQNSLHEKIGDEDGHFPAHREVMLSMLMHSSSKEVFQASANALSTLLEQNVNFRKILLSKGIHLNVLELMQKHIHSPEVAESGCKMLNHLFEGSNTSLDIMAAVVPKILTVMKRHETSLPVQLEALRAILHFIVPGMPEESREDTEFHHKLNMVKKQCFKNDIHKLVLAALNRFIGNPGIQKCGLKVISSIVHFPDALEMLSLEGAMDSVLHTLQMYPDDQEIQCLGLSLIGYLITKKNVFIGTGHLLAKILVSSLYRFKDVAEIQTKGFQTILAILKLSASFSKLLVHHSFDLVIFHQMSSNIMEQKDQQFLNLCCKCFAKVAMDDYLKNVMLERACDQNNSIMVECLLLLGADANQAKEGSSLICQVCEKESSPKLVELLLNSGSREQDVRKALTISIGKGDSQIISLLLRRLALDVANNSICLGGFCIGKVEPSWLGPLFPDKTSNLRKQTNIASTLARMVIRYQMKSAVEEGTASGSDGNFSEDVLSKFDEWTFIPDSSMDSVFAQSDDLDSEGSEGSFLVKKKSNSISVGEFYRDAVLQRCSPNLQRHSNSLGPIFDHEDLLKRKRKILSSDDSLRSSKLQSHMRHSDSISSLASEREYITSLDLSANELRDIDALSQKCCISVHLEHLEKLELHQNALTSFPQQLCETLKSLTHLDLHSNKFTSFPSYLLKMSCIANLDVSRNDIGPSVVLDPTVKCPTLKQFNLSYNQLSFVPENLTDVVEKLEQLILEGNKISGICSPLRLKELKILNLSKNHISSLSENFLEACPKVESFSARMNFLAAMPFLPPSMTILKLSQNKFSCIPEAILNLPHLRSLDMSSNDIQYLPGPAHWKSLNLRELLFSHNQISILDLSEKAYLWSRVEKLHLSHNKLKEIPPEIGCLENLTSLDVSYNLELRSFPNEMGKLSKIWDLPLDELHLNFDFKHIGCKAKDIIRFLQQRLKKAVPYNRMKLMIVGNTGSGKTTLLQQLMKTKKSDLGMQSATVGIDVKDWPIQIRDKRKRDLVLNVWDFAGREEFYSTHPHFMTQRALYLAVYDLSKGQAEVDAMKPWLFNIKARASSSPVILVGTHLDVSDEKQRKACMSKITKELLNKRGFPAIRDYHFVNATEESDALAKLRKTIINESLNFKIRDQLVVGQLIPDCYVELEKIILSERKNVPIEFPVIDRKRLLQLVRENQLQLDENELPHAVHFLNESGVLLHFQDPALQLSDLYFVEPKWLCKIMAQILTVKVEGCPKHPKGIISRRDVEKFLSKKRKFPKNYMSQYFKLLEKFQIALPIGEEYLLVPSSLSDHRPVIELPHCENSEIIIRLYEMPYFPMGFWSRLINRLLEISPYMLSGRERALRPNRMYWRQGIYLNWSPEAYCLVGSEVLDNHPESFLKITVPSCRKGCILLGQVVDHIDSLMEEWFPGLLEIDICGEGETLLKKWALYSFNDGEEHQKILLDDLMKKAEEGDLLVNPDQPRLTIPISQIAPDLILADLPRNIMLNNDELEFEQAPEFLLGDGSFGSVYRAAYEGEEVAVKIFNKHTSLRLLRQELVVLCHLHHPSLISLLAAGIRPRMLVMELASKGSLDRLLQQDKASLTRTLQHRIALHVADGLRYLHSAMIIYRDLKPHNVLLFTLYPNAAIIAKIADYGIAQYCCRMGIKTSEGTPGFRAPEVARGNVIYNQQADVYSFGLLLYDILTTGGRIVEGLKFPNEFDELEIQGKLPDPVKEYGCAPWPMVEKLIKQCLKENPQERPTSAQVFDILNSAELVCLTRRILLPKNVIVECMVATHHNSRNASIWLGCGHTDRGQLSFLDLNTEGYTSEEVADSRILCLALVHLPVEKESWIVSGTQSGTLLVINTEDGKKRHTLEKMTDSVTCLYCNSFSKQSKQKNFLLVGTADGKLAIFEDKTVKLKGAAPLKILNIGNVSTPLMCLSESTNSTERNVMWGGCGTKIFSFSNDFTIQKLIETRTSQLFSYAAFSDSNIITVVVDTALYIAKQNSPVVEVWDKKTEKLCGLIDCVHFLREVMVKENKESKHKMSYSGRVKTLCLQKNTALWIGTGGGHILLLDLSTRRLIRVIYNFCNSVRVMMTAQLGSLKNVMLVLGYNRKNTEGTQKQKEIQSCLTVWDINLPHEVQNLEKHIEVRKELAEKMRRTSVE
Chain of Leucine-rich repeat serine/threonine-protein kinase 2 (Homo sapiens), Q5S007 [G2019S] (Q5S007 whole entry G2019S): as the sequence (Q5S007 whole entry) above, with G2019S counted along it

SMILES: CN(C)CCOc1ccc(-c2nc(-c3ccncc3)c(-c3ccc4c(c3)CC/C4=N\O)[nH]2)cc1
- % of control [1]: 76%
- % of control [2]: 79%

SMILES: O[C@H]1CC[C@H](Nc2ncc3nc(Nc4c(F)cc(F)cc4F)n([C@H]4CCOC4)c3n2)CC1
- % of control [3]: 88%
- % of control [4]: 0%

SMILES: C=CC(=O)Nc1cc(-n2c(=O)ccc3cnc4ccc(-c5ccc(NS(C)(=O)=O)cc5)cc4c32)ccc1C
- % of control ([5]; at 1 µM): 100%
- % of control ([5]; at 10 µM): 100%

SMILES: Cc1cc([C@@H](C)Nc2ccccc2C(=O)O)c2nc(N3CCOCC3)cc(=O)n2c1 [AZD-6482]
- % of control [6]: 86%

- % of inhibition [7]: 10%
SMILES: CC[C@@H]1[C@H](F)C(=O)N[C@@H]1COc1nccc2cc(C(N)=O)c(OC)cc12 [ZIMLOVISERTIB]

- % of inhibition [8]: 100%
SMILES: CCC(=O)N1CC[C@H](Nc2ncnc3c2CN(c2cnc(OC)c(C(F)(F)F)c2)CC3)C1 [LENIOLISIB]

SMILES: O=C(NOC[C@H](O)CO)c1ccc(F)c(F)c1Nc1ccc(I)cc1F
- % of control [9]: 61%
